Experimental data reported in ChEMBL document CHEMBL1149389 (Bioorg Med Chem Lett, 2006).

How the values were obtained:
D(2) dopamine receptor = D(2) dopamine receptor (Homo sapiens, UniProt P14416); experiment: Binding affinity to human cloned dopamine D2 receptor
D(3) dopamine receptor = D(3) dopamine receptor (Homo sapiens, UniProt P35462); experiment: Binding affinity to human cloned dopamine D3 receptor
Rattus norvegicus = experiment: Antagonism of agonist-induced huddling deficits in orally administered rat; type: functional; details: po
[1] = Permeability across Caco-2 cell membrane; type: ADME, cell-based; details: human
Liver microsomes [2] = experiment: Metabolic stability in rat liver microsomes; type: ADME, Microsome
Liver microsomes [3] = experiment: Metabolic stability in human liver microsomes; type: ADME, Microsome

D(2) dopamine receptor, sequence (P14416 whole entry): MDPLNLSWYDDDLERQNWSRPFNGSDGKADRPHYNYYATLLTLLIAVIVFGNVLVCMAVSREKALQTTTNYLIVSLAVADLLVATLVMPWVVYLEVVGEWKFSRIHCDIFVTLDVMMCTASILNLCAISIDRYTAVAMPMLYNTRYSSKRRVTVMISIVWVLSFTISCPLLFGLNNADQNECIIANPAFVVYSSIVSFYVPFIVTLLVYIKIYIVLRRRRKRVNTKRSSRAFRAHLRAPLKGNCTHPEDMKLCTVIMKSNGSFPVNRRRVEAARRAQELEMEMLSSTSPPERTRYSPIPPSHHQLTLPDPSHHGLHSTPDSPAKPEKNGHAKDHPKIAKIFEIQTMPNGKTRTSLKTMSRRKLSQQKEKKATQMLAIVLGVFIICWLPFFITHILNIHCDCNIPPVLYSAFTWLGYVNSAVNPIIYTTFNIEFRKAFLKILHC
D(3) dopamine receptor, sequence (P35462 whole entry): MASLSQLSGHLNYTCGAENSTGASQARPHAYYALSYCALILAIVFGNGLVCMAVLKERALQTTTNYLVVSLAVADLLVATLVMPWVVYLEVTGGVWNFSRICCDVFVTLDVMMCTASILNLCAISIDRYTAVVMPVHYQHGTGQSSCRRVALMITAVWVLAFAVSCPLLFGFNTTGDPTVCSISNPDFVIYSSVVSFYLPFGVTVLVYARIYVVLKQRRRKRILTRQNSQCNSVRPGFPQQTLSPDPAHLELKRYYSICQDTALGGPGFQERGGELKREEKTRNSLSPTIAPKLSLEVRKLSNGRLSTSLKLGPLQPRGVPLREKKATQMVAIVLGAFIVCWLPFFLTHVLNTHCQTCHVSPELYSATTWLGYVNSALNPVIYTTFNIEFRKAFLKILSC

SMILES | Ki (D(2) dopamine receptor) | Ki (D(3) dopamine receptor) | other results
CC(C)(C)c1nc(N2CCN(CCCCn3ccc(N4CCC4)nc3=O)CC2)cc(C(F)(F)F)n1 | 0.0821 µM | 0.0044 µM | 
Cn1c(=O)ccn(CCCCN2CCN(c3cc(C(F)(F)F)nc(C(C)(C)C)n3)CC2)c1=O | 0.61 µM | 0.0118 µM | 
CC(C)(C)c1nc(N2CCN(CCCCn3cc(C#N)c(=O)[nH]c3=O)CC2)cc(C(F)(F)F)n1 | 0.473 µM |  | 
CC(C)(C)c1nc(N2CCN(CCCCn3cc(F)c(=O)[nH]c3=O)CC2)cc(C(F)(F)F)n1 | 0.602 µM |  | 
CC(C)(C)c1nc(N2CCN(CCCCn3cccnc3=O)CC2)cc(C(F)(F)F)n1 | 0.447 µM | 0.0129 µM | 
CC(C)(C)c1nc(N2CCN(CCCCn3cc(C(F)(F)F)c(=O)[nH]c3=O)CC2)cc(C(F)(F)F)n1 | 0.646 µM |  | 
Cc1cn(CCCCN2CCN(c3cc(C(F)(F)F)nc(C(C)(C)C)n3)CC2)c(=O)n(C)c1=O | 0.356 µM | 0.0104 µM | 
CC(C)(C)c1nc(N2CCN(CCCSc3nccc(O)n3)CC2)cc(C(F)(F)F)n1 [ABT-925] | 0.351 µM |  | 

More lines, in order of falling Ki (D(2) dopamine receptor), values ahead:

Ki (D(2) dopamine receptor) | Ki (D(3) dopamine receptor) | SMILES | other results
0.32 µM |  | Cc1cn(CCCCN2CCN(c3cc(C(F)(F)F)nc(C(C)(C)C)n3)CC2)c(=O)[nH]c1=O | ED50 (Rattus norvegicus): 6.1 mg/kg; Papp [1]: 19.4 nm/s; Stability (Liver microsomes [2]): > 97%; Stability (Liver microsomes [3]): > 97%
0.307 µM |  | Cc1ccn(CCCCN2CCN(c3cc(C(F)(F)F)nc(C(C)(C)C)n3)CC2)c(=O)n1 | 
0.302 µM |  | CC(C)(C)c1nc(N2CCN(CCCCn3ccc(C4CCCCC4)nc3=O)CC2)cc(C(F)(F)F)n1 | 
0.29 µM |  | CCOc1ccn(CCCCN2CCN(c3cc(C(F)(F)F)nc(C(C)(C)C)n3)CC2)c(=O)n1 | 
0.273 µM |  | CC(C)(C)c1nc(N2CCN(CCCCn3ccc(C4CCC4)nc3=O)CC2)cc(C(F)(F)F)n1 | 
0.22 µM |  | CC(C)(C)c1nc(N2CCN(CCCCn3cc(Cl)c(=O)[nH]c3=O)CC2)cc(C(F)(F)F)n1 | 
0.216 µM |  | CC(C)(C)c1ccn(CCCCN2CCN(c3cc(C(F)(F)F)nc(C(C)(C)C)n3)CC2)c(=O)n1 | 
0.196 µM |  | CC(C)(C)c1nc(N2CCN(CCCCn3ccc(=O)[nH]c3=O)CC2)cc(C(F)(F)F)n1 | 
0.168 µM |  | CC(C)(C)c1nc(N2CCN(CCCCn3ccc(-c4ccccc4)nc3=O)CC2)cc(C(F)(F)F)n1 | 
0.155 µM | 0.0037 µM | CC(C)(C)c1nc(N2CCN(CCCCn3ccc(C4CC4)nc3=O)CC2)cc(C(F)(F)F)n1 | 
0.148 µM | 0.0017 µM | CCc1cn(CCCCN2CCN(c3cc(C(F)(F)F)nc(C(C)(C)C)n3)CC2)c(=O)[nH]c1=O | 
0.0894 µM | 0.0034 µM | CC(C)(C)c1nc(N2CCN(CCCCn3ccc(N4CCCCC4)nc3=O)CC2)cc(C(F)(F)F)n1 | 
